Results taken from ChEMBL document CHEMBL1201862, “PubChem BioAssay data set” (2004).
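Grown in 96-well plates, cells were treated for 48 hours with each compound at five concentrations. Insufficient inhibition: endpoint recorded as highest concentration tested. The concentration for 50% growth inhibition is given as GI50.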 Active and inactive are the calls of the source. Rule as the data show it: active = GI50 up to about 1.1 µM and inactive = higher.

What was measured:
Assay in all cases: NCI-60 cell line screen, 48 h
HT-29 = test system: HT-29
OVCAR-8 = test system: OVCAR-8
786-0 = test system: 786-0
OVCAR-3 = test system: OVCAR-3
UACC-62 = test system: UACC-62
SK-OV-3 = test system: SK-OV-3
CAKI-1 = test system: CAKI-1
SNB-75 = test system: SNB-75
SF-539 = test system: SF-539
A498 = test system: A498
U-251 = test system: U-251
EKVX = test system: EKVX
IGROV-1 = test system: IGROV-1
DMS-114 = test system: DMS-114
HCT-15 = test system: HCT-15
OVCAR-5 = test system: OVCAR-5
SR = test system: SR
DLD-1 = test system: DLD-1
HOP-92 = test system: HOP-92
TK-10 = test system: TK-10
K562 = test system: K562
KM12 = test system: KM12
SF-295 = test system: SF-295
SN12C = test system: SN12C
COLO 205 = test system: COLO 205
HCC 2998 = test system: HCC 2998
LOX IMVI = test system: LOX IMVI
ACHN = test system: ACHN
SW-620 = test system: SW-620
SK-MEL-28 = test system: SK-MEL-28
NCI-H522 = test system: NCI-H522
NCI-H226 = test system: NCI-H226
SK-MEL-5 = test system: SK-MEL-5
RXF 393 = test system: RXF 393
HOP-18 = test system: HOP-18
HOP-62 = test system: HOP-62
CCRF-CEM = test system: CCRF-CEM
SNB-19 = test system: SNB-19
XF498 = test system: XF498
HL-60 = test system: HL-60
M19-MEL = test system: M19-MEL
NCI-H460 = test system: NCI-H460
RPMI-8226 = test system: RPMI-8226
A549 = test system: A549
KM-20L2 = test system: KM-20L2
SF-268 = test system: SF-268
UO-31 = test system: UO-31
Malme-3M = test system: Malme-3M
SNB-78 = test system: SNB-78
UACC-257 = test system: UACC-257
SK-MEL-2 = test system: SK-MEL-2
M14 = test system: M14
OVCAR-4 = test system: OVCAR-4
DMS-273 = test system: DMS-273
MOLT-4 = test system: MOLT-4
NCI-H23 = test system: NCI-H23
HCT-116 = test system: HCT-116
LXFL 529 = test system: LXFL 529

## Cc1ccc([N+](=O)[O-])cc1NC(=O)C(=O)Cc1occc(=O)c1O
HT-29
  GI50: > 100 µM (inactive)
OVCAR-8
  GI50: > 100 µM (inactive)
786-0
  GI50: > 100 µM (inactive)
OVCAR-3
  GI50: > 100 µM (inactive)
UACC-62
  GI50: > 100 µM (inactive)
SK-OV-3
  GI50: > 100 µM (inactive)
CAKI-1
  GI50: > 100 µM (inactive)
SNB-75
  GI50: > 100 µM (inactive)
SF-539
  GI50: > 100 µM (inactive)
A498
  GI50: > 100 µM (inactive)
U-251
  GI50: > 100 µM (inactive)
EKVX
  GI50: > 100 µM (inactive)
IGROV-1
  GI50: > 100 µM (inactive)
DMS-114
  GI50: > 100 µM (inactive)
HCT-15
  GI50: > 100 µM
OVCAR-5
  GI50: > 100 µM (inactive)
SR
  GI50: > 100 µM (inactive)
DLD-1
  GI50: > 100 µM (inactive)
HOP-92
  GI50: > 100 µM (inactive)
TK-10
  GI50: > 100 µM (inactive)
K562
  GI50: > 100 µM (inactive)
KM12
  GI50: > 100 µM (inactive)
SF-295
  GI50: > 100 µM (inactive)
SN12C
  GI50: > 100 µM (inactive)
COLO 205
  GI50: > 100 µM (inactive)
HCC 2998
  GI50: > 100 µM (inactive)
LOX IMVI
  GI50: > 100 µM (inactive)
ACHN
  GI50: > 100 µM (inactive)
SW-620
  GI50: > 100 µM (inactive)
SK-MEL-28
  GI50: > 100 µM (inactive)
NCI-H522
  GI50: > 100 µM (inactive)
NCI-H226
  GI50: > 100 µM (inactive)
SK-MEL-5
  GI50: > 100 µM (inactive)
RXF 393
  GI50: > 100 µM (inactive)
HOP-18
  GI50: > 100 µM (inactive)
HOP-62
  GI50: > 100 µM (inactive)
CCRF-CEM
  GI50: > 100 µM (inactive)
SNB-19
  GI50: > 100 µM (inactive)
XF498
  GI50: > 100 µM (inactive)
HL-60
  GI50: > 100 µM (inactive)
M19-MEL
  GI50: > 100 µM (inactive)
NCI-H460
  GI50: > 100 µM (inactive)
RPMI-8226
  GI50: > 100 µM (inactive)
A549
  GI50: > 100 µM (inactive)
KM-20L2
  GI50: > 100 µM (inactive)
SF-268
  GI50: > 100 µM (inactive)
UO-31
  GI50: > 100 µM (inactive)

## O=C1C(=Cc2ccc([N+](=O)[O-])o2)C(=O)N(CCc2ccccc2)S(=O)(=O)N1CCc1ccccc1
HT-29
  GI50: 33.5 µM (inactive)
OVCAR-8
  GI50: 28.9 µM (inactive)
786-0
  GI50: 20.3 µM (inactive)
Malme-3M
  GI50: 17.1 µM (inactive)
OVCAR-3
  GI50: 17.4 µM (inactive)
UACC-62
  GI50: 16.9 µM (inactive)
SK-OV-3
  GI50: > 100 µM (inactive)
SNB-78
  GI50: 26.1 µM (inactive)
UACC-257
  GI50: 63 µM (inactive)
SNB-75
  GI50: 37.9 µM (inactive)
SF-539
  GI50: 38.1 µM (inactive)
SK-MEL-2
  GI50: 16.6 µM (inactive)
U-251
  GI50: > 100 µM (inactive)
EKVX
  GI50: > 100 µM (inactive)
IGROV-1
  GI50: > 100 µM (inactive)
HCT-15
  GI50: 16.3 µM
OVCAR-5
  GI50: > 100 µM (inactive)
SR
  GI50: 14.3 µM (inactive)
DLD-1
  GI50: 17.6 µM (inactive)
HOP-92
  GI50: 19.3 µM (inactive)
TK-10
  GI50: 42.2 µM (inactive)
K562
  GI50: 37 µM (inactive)
KM12
  GI50: > 100 µM (inactive)
SF-295
  GI50: > 100 µM (inactive)
M14
  GI50: 15.4 µM (inactive)
OVCAR-4
  GI50: 16.3 µM (inactive)
SN12C
  GI50: 50.4 µM (inactive)
COLO 205
  GI50: 20.2 µM (inactive)
HCC 2998
  GI50: > 100 µM (inactive)
DMS-273
  GI50: 32.7 µM (inactive)
LOX IMVI
  GI50: 18.7 µM (inactive)
ACHN
  GI50: 17.1 µM (inactive)
SW-620
  GI50: 19.5 µM (inactive)
SK-MEL-28
  GI50: 14.6 µM (inactive)
NCI-H522
  GI50: 19.9 µM (inactive)
NCI-H226
  GI50: 24.7 µM (inactive)
MOLT-4
  GI50: 19.2 µM (inactive)
SK-MEL-5
  GI50: 18.7 µM (inactive)
RXF 393
  GI50: 19.5 µM (inactive)
HOP-18
  GI50: 42.2 µM (inactive)
CCRF-CEM
  GI50: 27.7 µM (inactive)
NCI-H23
  GI50: 16.8 µM (inactive)
HCT-116
  GI50: 16.3 µM (inactive)
SNB-19
  GI50: > 100 µM (inactive)
XF498
  GI50: 20.4 µM (inactive)
HL-60
  GI50: 12.6 µM (inactive)
M19-MEL
  GI50: 17.7 µM (inactive)
NCI-H460
  GI50: > 100 µM (inactive)
RPMI-8226
  GI50: 27.4 µM (inactive)
A549
  GI50: > 100 µM (inactive)
KM-20L2
  GI50: > 100 µM (inactive)
SF-268
  GI50: 21.8 µM (inactive)
LXFL 529
  GI50: 16.8 µM (inactive)
UO-31
  GI50: 45.3 µM (inactive)
